Experimental data: US10004701B2, “Methods and compositions for treating infection” (UNIVERSITY OF ROCHESTER, priority 2012, dated 2018)
Where a name gives a salt, the structure may show the parent alone. Read-outs that look alike come from different tables or passages of the source.

Key:
Assay in all cases: AK assay 384-well format, Prestwick library screening
[1] = system: S. aureus strain USA300-0114; format: cell-based, Staphylococcus aureus; details: 50 μM final drug concentration; for fold induction at 50 µM: Staphylococcus aureus, USA300, 3 h
[2] = system: A. baumannii strain 98-37-09; format: cell-based, Acinetobacter baumannii; details: 50 μM final drug concentration; for fold induction at 50 µM: Acinetobacter baumannii, 983709, 3 h
[3] = system: E. faecium; format: cell-based, Enterococcus faecium; details: 50 μM final drug concentration; for fold induction at 50 µM: Enterococcus faecium, 3 h
[4] = system: E. cloacae; format: cell-based, Enterobacter cloacae; details: 50 μM final drug concentration; for fold induction at 50 µM: Enterobacter cloacae, 3 h
[5] = system: E. coli; format: cell-based, Escherichia coli; details: 50 μM final drug concentration; for fold induction at 50 µM: Escherichia coli, 3 h
[6] = system: K. pneumoniae; format: cell-based, Klebsiella pneumoniae; details: 50 μM final drug concentration; for fold induction at 50 µM: Klebsiella pneumoniae, 3 h
[7] = system: P. aeruginosa; format: cell-based, Pseudomonas aeruginosa; details: 50 μM final drug concentration; for fold induction at 50 µM: Pseudomonas aeruginosa, 3 h
[8] = 384-well format, cutoff for positive-scoring molecules 3-fold increase, read-out: AK-based Prestwick Library Screening Results, S. aureus (increase in extracellular AK activity)
[9] = 384-well format, cutoff for positive-scoring molecules 3-fold increase, read-out: AK-based Prestwick Library Screening Results, A. baumannii (increase in extracellular AK activity)
[10] = 384-well format, cutoff for positive-scoring molecules 3-fold increase, read-out: AK-based Prestwick Library Screening Results, E. faecium (increase in extracellular AK activity)
[11] = 384-well format, cutoff for positive-scoring molecules 3-fold increase, read-out: AK-based Prestwick Library Screening Results, E. cloacae (increase in extracellular AK activity)
[12] = 384-well format, cutoff for positive-scoring molecules 3-fold increase, read-out: AK-based Prestwick Library Screening Results, E. coli (increase in extracellular AK activity)
[13] = 384-well format, cutoff for positive-scoring molecules 3-fold increase, read-out: AK-based Prestwick Library Screening Results, K. pneumoniae (increase in extracellular AK activity)
[14] = 384-well format, cutoff for positive-scoring molecules 3-fold increase, read-out: AK-based Prestwick Library Screening Results, P. aeruginosa (increase in extracellular AK activity)

CNC1(C)C2CCC(C2)C1(C)C (stereo not drawn) [Mecamylamine hydrochloride]
fold induction at 50 µM ([1]; planktonic S. aureus, positive cutoff 3-fold increase, read-out: AK-based Prestwick library screening result, S. aureus (fold increase in extracellular AK activity)): 1.4 | fold induction at 50 µM ([2]; planktonic A. baumannii, positive cutoff 3-fold increase, read-out: AK-based Prestwick library screening result, A. baumannii (fold increase in extracellular AK activity)): 1.2 | fold induction at 50 µM ([3]; planktonic E. faecium, positive cutoff 3-fold increase, read-out: AK-based Prestwick library screening result, E. faecium (fold increase in extracellular AK activity)): 1.1 | fold induction at 50 µM ([4]; planktonic E. cloacae, positive cutoff 3-fold increase, read-out: AK-based Prestwick library screening result, E. cloacae (fold increase in extracellular AK activity)): 1.6 | fold induction at 50 µM ([5]; planktonic E. coli, positive cutoff 3-fold increase, read-out: AK-based Prestwick library screening result, E. coli (fold increase in extracellular AK activity)): 1.4 | fold induction at 50 µM ([6]; planktonic K. pneumoniae, positive cutoff 3-fold increase, read-out: AK-based Prestwick library screening result, K. pneumoniae (fold increase in extracellular AK activity)): 1 | fold induction at 50 µM ([7]; planktonic P. aeruginosa, positive cutoff 3-fold increase, read-out: AK-based Prestwick library screening result, P. aeruginosa (fold increase in extracellular AK activity)): 1.1

C=C1CC[C@H](O)C/C1=C/C=C1\CCC[C@]2(C)[C@@H]([C@H](C)CCCC(C)C)CC[C@@H]12 [Cholecalciferol]
fold induction at 50 µM ([1]; planktonic S. aureus, […], read-out: AK-based Prestwick Library Screening Results, S. aureus (increase in extracellular AK activity)): 0.7 | fold induction at 50 µM ([2]; planktonic A. baumannii, […], read-out: AK-based Prestwick Library Screening Results, A. baumannii (increase in extracellular AK activity)): 0.8 | fold induction at 50 µM ([3]; planktonic E. faecium, […], read-out: AK-based Prestwick Library Screening Results, E. faecium (increase in extracellular AK activity)): 0.9 | fold induction at 50 µM ([4]; planktonic E. cloacae, […], read-out: AK-based Prestwick Library Screening Results, E. cloacae (increase in extracellular AK activity)): 1 | fold induction at 50 µM ([5]; planktonic E. coli, […], read-out: AK-based Prestwick Library Screening Results, E. coli (increase in extracellular AK activity)): 1 | fold induction at 50 µM ([6]; planktonic K. pneumoniae, […], read-out: AK-based Prestwick Library Screening Results, K. pneumoniae (increase in extracellular AK activity)): 0.7 | fold induction at 50 µM ([7]; planktonic P. aeruginosa, […], read-out: AK-based Prestwick Library Screening Results, P. aeruginosa (increase in extracellular AK activity)): 0.9

COc1cc(C)nc(-n2nc(C)cc2OC)n1 [Epirizole]
fold induction at 50 µM [1, 8]: 2.2 | fold induction at 50 µM [2, 9]: 0.9 | fold induction at 50 µM [3, 10]: 0.8 | fold induction at 50 µM [4, 11]: 1.2 | fold induction at 50 µM [5, 12]: 1 | fold induction at 50 µM [6, 13]: 0.7 | fold induction at 50 µM [7, 14]: 0.8

C[N+]1(C)CCC(=C(c2ccccc2)c2ccccc2)CC1 [Diphemanil methylsulfate]
fold induction at 50 µM ([1]; planktonic S. aureus, 384-well, […], read-out: AK-based Prestwick Library Screening Results: S. aureus (increase in extracellular AK activity)): 1.5 | fold induction at 50 µM ([2]; planktonic A. baumannii, 384-well, […], read-out: AK-based Prestwick Library Screening Results: A. baumannii (increase in extracellular AK activity)): 1.3 | fold induction at 50 µM ([3]; planktonic E. faecium, 384-well, […], read-out: AK-based Prestwick Library Screening Results: E. faecium (increase in extracellular AK activity)): 1.1 | fold induction at 50 µM ([4]; planktonic E. cloacae, 384-well, […], read-out: AK-based Prestwick Library Screening Results: E. cloacae (increase in extracellular AK activity)): 1.6 | fold induction at 50 µM ([5]; planktonic E. coli, 384-well, […], read-out: AK-based Prestwick Library Screening Results: E. coli (increase in extracellular AK activity)): 1.2 | fold induction at 50 µM ([6]; planktonic K. pneumoniae, 384-well, […], read-out: AK-based Prestwick Library Screening Results: K. pneumoniae (increase in extracellular AK activity)): 1.1 | fold induction at 50 µM ([7]; planktonic P. aeruginosa, 384-well, […], read-out: AK-based Prestwick Library Screening Results: P. aeruginosa (increase in extracellular AK activity)): 1

O=C1C=C2C=C[C@@H]3C[C@@]2(O1)[C@H]1CCCCN31 [Securinine]
fold induction at 50 µM ([1]; […], read-out: AK-based Prestwick Library Screening Results, S. aureus (fold increase in extracellular AK activity)): 1.1 | fold induction at 50 µM ([2]; […], read-out: AK-based Prestwick Library Screening Results, A. baumannii (fold increase in extracellular AK activity)): 1.1 | fold induction at 50 µM ([3]; […], read-out: AK-based Prestwick Library Screening Results, E. faecium (fold increase in extracellular AK activity)): 1 | fold induction at 50 µM ([4]; […], read-out: AK-based Prestwick Library Screening Results, E. cloacae (fold increase in extracellular AK activity)): 1.6 | fold induction at 50 µM ([5]; […], read-out: AK-based Prestwick Library Screening Results, E. coli (fold increase in extracellular AK activity)): 1.3 | fold induction at 50 µM ([6]; […], read-out: AK-based Prestwick Library Screening Results, K. pneumoniae (fold increase in extracellular AK activity)): 0.8 | fold induction at 50 µM ([7]; […], read-out: AK-based Prestwick Library Screening Results, P. aeruginosa (fold increase in extracellular AK activity)): 1.2

COc1ccc2c(c1OC)CN1CCc3cc4c(cc3C1C2)OCO4 (stereo not drawn) [(d,l)-Tetrahydroberberine]
AK-based Prestwick Library Screening Results, S. aureus (fold increase in extracellular AK activity) ([1]; planktonic, […]): 0.7 | AK-based Prestwick Library Screening Results, A. baumannii (fold increase in extracellular AK activity) ([2]; planktonic, […]): 0.9 | AK-based Prestwick Library Screening Results, E. faecium (fold increase in extracellular AK activity) ([3]; planktonic, […]): 0.9 | AK-based Prestwick Library Screening Results, E. cloacae (fold increase in extracellular AK activity) ([4]; planktonic, […]): 1.3 | AK-based Prestwick Library Screening Results, E. coli (fold increase in extracellular AK activity) ([5]; planktonic, […]): 0.8 | AK-based Prestwick Library Screening Results, K. pneumoniae (fold increase in extracellular AK activity) ([6]; planktonic, […]): 0.7 | AK-based Prestwick Library Screening Results, P. aeruginosa (fold increase in extracellular AK activity) ([7]; planktonic, […]): 0.8

CCCCOc1cc(C(=O)NCCN(CC)CC)c2ccccc2n1 [Dibucaine]
fold induction at 50 µM ([1]; planktonic S. aureus, 384-well, cutoff for positive-scoring molecules 3-fold increase, read-out: AK-based Prestwick Library Screening Results: S. aureus (increase in extracellular AK activity)): 1.3 | fold induction at 50 µM ([2]; planktonic A. baumannii, 384-well, cutoff for positive-scoring molecules 3-fold increase, read-out: AK-based Prestwick Library Screening Results: A. baumannii (increase in extracellular AK activity)): 1.3 | fold induction at 50 µM ([3]; planktonic E. faecium, 384-well, cutoff for positive-scoring molecules 3-fold increase, read-out: AK-based Prestwick Library Screening Results: E. faecium (increase in extracellular AK activity)): 0.9 | fold induction at 50 µM ([4]; planktonic E. cloacae, 384-well, cutoff for positive-scoring molecules 3-fold increase, read-out: AK-based Prestwick Library Screening Results: E. cloacae (increase in extracellular AK activity)): 1.7 | fold induction at 50 µM ([5]; planktonic E. coli, 384-well, cutoff for positive-scoring molecules 3-fold increase, read-out: AK-based Prestwick Library Screening Results: E. coli (increase in extracellular AK activity)): 1.3 | fold induction at 50 µM ([6]; planktonic K. pneumoniae, 384-well, cutoff for positive-scoring molecules 3-fold increase, read-out: AK-based Prestwick Library Screening Results: K. pneumoniae (increase in extracellular AK activity)): 1.1 | fold induction at 50 µM ([7]; planktonic P. aeruginosa, 384-well, cutoff for positive-scoring molecules 3-fold increase, read-out: AK-based Prestwick Library Screening Results: P. aeruginosa (increase in extracellular AK activity)): 1.1

CC(C)(C)NCC(O)c1ccc(O)c(CO)c1 (stereo not drawn) [Salbutamol]
fold induction at 50 µM [1, 8]: 0.8 | fold induction at 50 µM [2, 9]: 0.9 | fold induction at 50 µM [3, 10]: 1 | fold induction at 50 µM [4, 11]: 1.4 | fold induction at 50 µM [5, 12]: 0.9 | fold induction at 50 µM [6, 13]: 0.7 | fold induction at 50 µM [7, 14]: 0.8

CNCCCC1c2ccccc2C=Cc2ccccc21 [Protriptyline hydrochloride]
fold induction at 50 µM ([1]; cutoff for positive-scoring molecules 3-fold increase, read-out: AK-based Prestwick Library Screening Results, S. aureus (fold increase in extracellular AK activity)): 2.8 | fold induction at 50 µM ([2]; cutoff for positive-scoring molecules 3-fold increase, read-out: AK-based Prestwick Library Screening Results, A. baumannii (fold increase in extracellular AK activity)): 1.1 | fold induction at 50 µM ([3]; cutoff for positive-scoring molecules 3-fold increase, read-out: AK-based Prestwick Library Screening Results, E. faecium (fold increase in extracellular AK activity)): 1 | fold induction at 50 µM ([4]; cutoff for positive-scoring molecules 3-fold increase, read-out: AK-based Prestwick Library Screening Results, E. cloacae (fold increase in extracellular AK activity)): 1.4 | fold induction at 50 µM ([5]; cutoff for positive-scoring molecules 3-fold increase, read-out: AK-based Prestwick Library Screening Results, E. coli (fold increase in extracellular AK activity)): 1.2 | fold induction at 50 µM ([6]; cutoff for positive-scoring molecules 3-fold increase, read-out: AK-based Prestwick Library Screening Results, K. pneumoniae (fold increase in extracellular AK activity)): 1.1 | fold induction at 50 µM ([7]; cutoff for positive-scoring molecules 3-fold increase, read-out: AK-based Prestwick Library Screening Results, P. aeruginosa (fold increase in extracellular AK activity)): 1.2
